Experimental data reported in patent US7033996B2, “Method for the treatment of vitamin D related disease” (University of Medicine & Dentistry of New Jersey, priority 2001, dated 2006).
Entries after “also recorded” stand apart in the source; their conditions may differ. Each block holds one molecule with its values, some of them ahead of it.

Assays:
C/EBPβ protein = experiment: Western blot of C/EBPβ protein in primary murine osteoblasts; assay type: cell-based
Excerpt: Induction of C/EBPβ protein is examined by Western blot using nuclear extracts (antibody from Santa Cruz).

C/EBPβ = experiment: Northern analysis verifying C/EBPβ induction in kidney and osteoblastic cells; assay type: cell-based
C/EBPβ mRNA = experiment: Time course of mRNA induction by Northern blot in UMR osteoblastic cells; assay type: cell-based; conditions: time course 0–24 h
24(OH)ase mRNA = experiment: as above; assay type: cell-based; conditions: time course 0–24 h
hVDR promoter = experiment: PKA mediated hVDR promoter (-1500/+60) luciferase transcription with cotransfected C/EBPβ; assay type: cell-based, human; conditions: JEG cells, 2 μg VDR promoter, 1 μg PKA expression vector, 5 μg C/EBPβ
Experimental: FIG. 2 is an illustration of C/EBPβ enhancement of PKA mediated transcriptional activation of hVDR. 2 μg of the VDR promoter (−1500/+60) cotransfected in JEG cells with 1 μg of PKA expression vector in the presence or absence of 5 μg C/EBPβ.
cAMP or PTH induced enhancement of 24(OH)ase transcription is due at least in part to an upregulation of VDR. Since two putative C/EBPβ sites have been reported in the hVDR promoter (at −1490 and at −920; 143) the determination of the effect of C/EBPβ on VDR promoter activity is important. We have isolated the hVDR promoter fragment −1500/+60 by PCR and ligated it into the PGL-2 luciferase vector and found in our studies that C/EBPβ enhances PKA mediated transcription of the VDR (FIG. 2).

rat 24(OH)ase promoter = experiment: 1,25(OH)2D3 induced 24(OH)ase promoter transcription with cotransfected C/EBPβ; conditions: COS cells cotransfected with hVDR and C/EBPβ, 1,25(OH)2D3 for 24 h

Molecule: C=C1/C(=C\C=C2/CCC[C@]3(C)[C@@H]([C@H](C)CCCC(C)(C)O)CC[C@@H]23)C[C@@H](O)C[C@@H]1O [1,25(OH)2D3, 1,25-dihydroxyvitamin D3]
- induction of C/EBPβ protein by Western blot (C/EBPβ protein): induction
- induction of C/EBPβ by Northern analysis (C/EBPβ): induction
- first significant induction of C/EBPβ mRNA after treatment (C/EBPβ mRNA): 3 h
- first significant induction of 24(OH)ase mRNA after treatment (24(OH)ase mRNA): 9 h

- effect of C/EBPβ on PKA mediated transcription of the VDR (hVDR promoter): enhances
B1: C/EBPβ: CCAATT enhancer binding protein β, a transcription factor, supplied by pMEX C/EBPβ expression vector (protein, listed as Homo sapiens)
chain: APAPAPASSGQHHDFLSDLFSDDYGGKNCKKPAEYGYVSLGRLGAAKGAHPPPPPPPPPAELKAEPGFEPADCKRKEEAGAPGGGAGMAAGFPYALRAGSSGSLSTSSSSSPPGTPSPADAKAPPTACYAGAGPAPSQVKSKAKKTVRRERNNIAVRKSRDKAKMRNLETQHKVLELTAENERLQKKVEQLSRELSPEPLLASSGHC
- effect of C/EBPβ on 1,25(OH)2D3 induced 24(OH)ase transcription (rat 24(OH)ase promoter): markedly enhanced; also recorded: enhanced transcriptional response
